Patent publication US7205298B2, “Substituted triazine kinase inhibitors” (Janssen Pharmaceutica N.V., priority 2002, dated 2007)

Assays:
CDK1:Cyclin-B = target: T1, CDK1:Cyclin-B (Homo sapiens, UniProt P06493); assay: CDK1 Screening Assay; type: biochemical
T1 construct: purchased New England Biolabs 6020; host or cells: insect cells
Description: A kinase reaction mixture was prepared containing 50 mM Tris-HCl pH=8, 10 mM MgCl2, 0.1 mM Na3PO4, 1 mM DTT, 10 μM ATP, 0.025 μM biotinylated histone-H1 peptide substrate (also referred to herein as a CDK-1 peptide substrate, see substrate table) and 0.2 μCuries per well ^33P-γ-ATP (2000–3000 Ci/mmol). 70 μL of the kinase reaction mixture was dispensed into the well of a streptavidin coated FlashPlate™ (Cat. # SMP 103, NEN, Boston, Mass.). Then 1 μL of test compound stock in 100% DMSO was added to the wells resulting in a final concentration of 1% DMSO in the reaction with a 100 μl final reaction volume. Next, CDK1:Cyclin-B protein (New England Biolads, infra) was diluted in 50 mM Tris-HCl pH=8.0, 0.1% BSA at a concentration of 1 ng per μL and 30 μl (30 ng enzyme per test well) was added to each well to initiate the reaction. The reaction was incubated for one hour at 30° C. At the end of the 1-hour incubation, the reaction was terminated by aspirating the reaction mixture from the plate and washing the wells twice with PBS containing 100 mM EDTA. The histone-H1 biotinylated peptide substrate became immobilized on the Flashplate™ (Perkin Elmer, NEN Boston, Mass.) and the incorporation of ^33P-γ-ATP was measured by reading the plate on a scintillation counter. Inhibition of the enzymatic activity of CDK1 was measured by observing a reduced amount of ^33P-γ-ATP incorporated into the immobilized peptide.
(§1) Assays to test compound inhibition of other kinases were preformed using methods that measure the amount of phosphorylation of a biotinylated peptide substrate. Biotinylated peptide substrates were selected from the literature as appropriate for the enzyme being evaluated. The general procedure used to assay for kinase activity is as follows: a kinase reaction mix was prepared in 50 mM Tris-HCl pH=8, 10 mM MgCl2, 0.1 mM Na3VO4, 1 mM DTT, 10 μM ATP, 0.25–1 μM biotinylated peptide substrate, 0.2–0.8 μCuries per well ^33P-γ-ATP (2000–3000 Ci/mmol). Assay conditions vary slightly for each protein kinase, for example, insulin receptor kinase requires 10 mM MnCl2 for activity and Calmodulin-dependent protein kinase requires calmodulin and 2 mM CaCl2. The reaction mixture was dispensed into the wells of a streptavidin coated Flashplate and 1 μL test compound in 100% DMSO was added to a 100 μL reaction volume resulting in a final concentration of 1% DMSO in the reaction. Enzyme was diluted in 50 mM Tris-HCl pH=8.0, 0.1% BSA and added to each well. The reaction was incubated for one hour at 30° C. in the presence of a test compound. After one hour the reaction mix was aspirated from the plate and the plate was washed with PBS containing 100 mM EDTA. The plate was read on a scintillation counter to determine ^33P-γ-ATP incorporated into the immobilized peptide substrate. Test compounds were assayed in duplicate at 8 concentrations (100 μM, 10 μM, 1 μM, 100 nM, 10 nM, 1 nM, 100 pM, 10 pM). A maximum and minimum signal for the assay was determined on each plate. […] Known inhibitor compounds appropriate for the kinase being assayed were also included on each plate.
(§2) The form of VEGF-R (vascular endothelial growth factor receptor-2) used was a fusion protein containing a polyhistidine tag at the N-terminus followed by amino acids 786–1343 of the rat VEGF-R2 kinase domain (GenBank Accession #U93306). The form of CDK1 (cyclin dependent kinase 1) used was isolated from insect cells expressing both the human CDK1 catalytic subunit and its positive regulatory subunit cyclin B (CDK1:cyclin B protein, New England Biolabs, Beverly, Mass., Cat. #6020). The form of CDK4 (cyclin dependent kinase 4) used contains amino acids 769 to 921 of the mouse […] protein found in the GST-retinoblastoma protein construct (Santa Cruz Biotechnology, Santa Cruz, Calif.; Cat. #SC-4112). The form of EGF-R1 (epidermal growth factor receptor 1) used was purified from human A431 cell membranes (Sigma, St. Louis, Mo., Cat.# E3641). […]

[1] = target: T2, VEGF-R (rat VEGF-R2 kinase domain) (Rattus norvegicus, UniProt O08775); assay: VEGF-R Screening Assay; type: biochemical
T2 construct: 6xHis (polyhistidine) (N)
Description: A kinase reaction mixture was prepared containing 50 mM Tris-HCl pH=8, 10 mM MgCl2, 0.1 mM Na3PO4, 1 mM DTT, 10 μM ATP, 0.025 μM biotinylated peptide substrate (also referred to herein as PLC-1 biotinylated peptide substrate and PDGF receptor substrate, sequence provided in the peptide substrate table) and 0.8 μCuries per well ^33P-γ-ATP (2000–3000 Ci/mmol). 70 μL of the kinase reaction mixture was dispensed into the well of a streptavidin coated FlashPlate™ (Cat. # SMP103, NEN, Boston, Mass.). Then 1 μL of test compound stock in 100% DMSO was added to the wells resulting in a final concentration of 1% DMSO in the reaction with a 100 μL final reaction volume. Next, soluble rat VEGF tyrosine kinase containing an N-terminal 6XHIS tag was diluted in 50 mM Tris-HCl pH=8.0, 0.1% BSA at a concentration of 5 ng per μL and 30 μL (150 ng enzyme per test well) was added to each well to initiate the reaction. The reaction was incubated for one hour at 30° C. At the end of the 1-hour incubation, the reaction was terminated by aspirating the reaction mixture from the plate and washing the wells twice with PBS containing 100 mM EDTA. The PLC1 biotinylated peptide substrate became immobilized on the Flashplate™ and the incorporation of ^33P-γ-ATP was measured by reading the plate on a scintillation counter. Inhibition of the enzymatic activity of the VEGF-R was measured by observing a reduced amount of ^33P-γ-ATP incorporated into the immobilized peptide.
as §1, §2

T2 sequence (O08775 786-1343): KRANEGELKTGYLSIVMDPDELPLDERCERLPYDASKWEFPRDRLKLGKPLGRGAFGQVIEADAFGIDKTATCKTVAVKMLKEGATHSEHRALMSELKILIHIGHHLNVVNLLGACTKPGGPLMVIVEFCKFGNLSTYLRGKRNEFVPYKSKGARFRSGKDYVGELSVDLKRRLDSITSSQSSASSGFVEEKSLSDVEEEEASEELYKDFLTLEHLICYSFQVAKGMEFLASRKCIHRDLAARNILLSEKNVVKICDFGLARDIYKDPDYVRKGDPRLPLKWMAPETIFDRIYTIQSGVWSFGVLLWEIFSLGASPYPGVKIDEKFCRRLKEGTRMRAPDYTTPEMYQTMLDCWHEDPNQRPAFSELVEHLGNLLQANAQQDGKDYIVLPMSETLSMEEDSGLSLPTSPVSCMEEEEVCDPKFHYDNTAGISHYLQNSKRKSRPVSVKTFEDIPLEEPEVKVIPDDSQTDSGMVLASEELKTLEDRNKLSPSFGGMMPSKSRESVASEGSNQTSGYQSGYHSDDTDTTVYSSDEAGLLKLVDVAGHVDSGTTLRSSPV
T1 sequence (P06493 whole entry): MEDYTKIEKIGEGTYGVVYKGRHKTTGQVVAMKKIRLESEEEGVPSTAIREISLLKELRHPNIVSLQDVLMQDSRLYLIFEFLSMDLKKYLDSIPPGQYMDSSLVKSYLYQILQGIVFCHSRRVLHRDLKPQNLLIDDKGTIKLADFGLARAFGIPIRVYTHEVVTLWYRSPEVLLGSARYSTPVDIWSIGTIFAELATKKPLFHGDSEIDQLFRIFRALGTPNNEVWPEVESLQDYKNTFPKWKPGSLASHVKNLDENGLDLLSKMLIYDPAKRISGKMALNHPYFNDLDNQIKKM
T1 sequence (P14635 whole entry partner): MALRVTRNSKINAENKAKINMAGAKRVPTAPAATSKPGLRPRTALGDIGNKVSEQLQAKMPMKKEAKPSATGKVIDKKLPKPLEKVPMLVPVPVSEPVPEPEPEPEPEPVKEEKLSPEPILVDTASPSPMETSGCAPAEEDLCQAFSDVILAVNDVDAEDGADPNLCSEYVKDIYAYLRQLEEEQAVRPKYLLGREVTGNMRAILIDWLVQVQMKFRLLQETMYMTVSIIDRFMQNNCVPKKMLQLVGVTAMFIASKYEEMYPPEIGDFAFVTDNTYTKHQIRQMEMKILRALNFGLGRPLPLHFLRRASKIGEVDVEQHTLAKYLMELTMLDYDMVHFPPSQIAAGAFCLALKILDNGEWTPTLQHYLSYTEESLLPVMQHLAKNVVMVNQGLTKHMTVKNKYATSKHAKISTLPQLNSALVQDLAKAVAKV

Structure (SMILES): OCCCNc1cncc(-c2ncnc(Nc3ccc4c(c3)OCCO4)n2)c1 [Compound 5, 3-((5-(4-((2,3-dihydro-1,4-benzodioxin-6-yl)amino)-1,3,5-triazin-2-yl)-3-pyridinyl)amino)-1-propanol]
- IC50 (CDK1:Cyclin-B): 0.382 µM
- IC50 [1]: ≥ 10 µM

Structure (SMILES): OCCCNc1cncc(-c2ncnc(Nc3ccc(N4CCOCC4)cc3)n2)c1 [Compound 6, 3-((5-(4-((4-(4-morpholinyl)phenyl)amino)-1,3,5-triazin-2-yl)-3-pyridinyl)amino)-1-propanol]
- IC50 (CDK1:Cyclin-B): 1.24 µM
- IC50 [1]: 5.03 µM

Structure (SMILES): Nc1nc(Nc2cccc(Cl)c2)nc(-c2ccnc(NCCCO)c2)n1 [Compound 4, 3-((4-(4-amino-6-((3-chlorophenyl)amino)-1,3,5-triazin-2-yl)-2-pyridinyl)amino)-1-propanol]
- IC50 (CDK1:Cyclin-B): 0.766 µM
- IC50 [1]: 0.865 µM

Structure (SMILES): OCCCNc1cncc(-c2ncnc(Nc3cccc(Cl)c3)n2)n1 [Compound 3, 3-((6-(4-((3-chlorophenyl)amino)-1,3,5-triazin-2-yl)pyrazin-2-yl)amino)-1-propanol]
- IC50 (CDK1:Cyclin-B): 0.971 µM
- IC50 [1]: 12.9 µM
